Test systems include U251 CNS; SF-295 CNS; OVCAR-5 ovarian; SK-MEL-28 melanoma; MDA-MB-435; RPMI-8226 leukemia; HCT-15 colon; DU-145 prostate; HCC-2998 colon; SF-539 CNS.
What all share (assay): inhibition of tumour cell growth, NCI panel, 48 h

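1) Cells in 96-well plates. 2) Compound, 48 h, 5 concentrations. 3) Linear interpolation between surrounding doses. 4) Unreached endpoint = highest concentration. Here, GI50 denotes the concentration required for 50% inhibition of growth. The concentration for full growth arrest is given as TGI.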 Where only a bound is given, the exact number is not on record here.

Regarding `CS(=O)(=O)Nc1cccc(-c2ccc3c(NC(=O)C4CC4)n[nH]c3c2)c1`, the GI50 with U251 CNS was 1.49 µM; with SF-295 CNS it was 5.65 µM; in the assay with OVCAR-5 ovarian, 12.7 µM; in the assay with SK-MEL-28 melanoma, 3.4 µM; in the assay with MDA-MB-435, 0.165 µM; in the assay on RPMI-8226 leukemia it was 10.8 µM. For the same molecule, the GI50 is 7.29 µM in the assay on HCT-15 colon, 6.82 µM in the assay with DU-145 prostate, 4.08 µM with HCC-2998 colon and 1.5 µM in the assay with SF-539 CNS. The TGI with U251 CNS is greater than 25 µM; with SF-295 CNS, greater than 25 µM; in the assay with OVCAR-5 ovarian, greater than 25 µM; in the assay with SK-MEL-28 melanoma, greater than 25 µM; with MDA-MB-435, 0.944 µM; in the assay with RPMI-8226 leukemia, greater than 25 µM. Further, the TGI in the assay on HCT-15 colon, with DU-145 prostate, in the assay on HCC-2998 colon and in the assay with SF-539 CNS was greater than 25 µM in each case.
Consider `COc1cc(-n2cc(-c3ccc(F)cc3)[nH]c2=S)cc(OC)c1OC`, for which the GI50 is greater than 100 µM in the assay with U251 CNS; 47 µM in the assay with SF-295 CNS; greater than 100 µM with OVCAR-5 ovarian; greater than 100 µM in the assay on SK-MEL-28 melanoma; greater than 100 µM in the assay on MDA-MB-435; greater than 100 µM in the assay with RPMI-8226 leukemia. For the same molecule, the GI50 is greater than 100 µM in the assay with HCT-15 colon, greater than 100 µM with DU-145 prostate, greater than 100 µM in the assay on HCC-2998 colon and 63.1 µM in the assay on SF-539 CNS. In addition, the TGI with U251 CNS, with SF-295 CNS, in the assay on OVCAR-5 ovarian, in the assay with SK-MEL-28 melanoma, with MDA-MB-435 and in the assay with RPMI-8226 leukemia was greater than 100 µM throughout. Further, the TGI in the assay with HCT-15 colon, with DU-145 prostate, in the assay with HCC-2998 colon and with SF-539 CNS was greater than 100 µM throughout.
With `COc1ccc2c(c1)C(=O)/C(=C/c1ccc([N+](=O)[O-])s1)O2`, the GI50 in the assay with U251 CNS is 0.287 µM; in the assay on SF-295 CNS it was 2.95 µM; with OVCAR-5 ovarian, 1.6 µM; with SK-MEL-28 melanoma it was 0.248 µM; in the assay on MDA-MB-435 it was 0.314 µM; with RPMI-8226 leukemia, 0.26 µM. In addition, the GI50 was 0.219 µM in the assay on HCT-15 colon, 1.79 µM in the assay on DU-145 prostate, 0.514 µM in the assay with HCC-2998 colon and 0.352 µM in the assay on SF-539 CNS. The TGI came to 0.943 µM in the assay with U251 CNS; 9.61 µM with SF-295 CNS; 3.34 µM in the assay with OVCAR-5 ovarian; 0.689 µM with SK-MEL-28 melanoma; 1.76 µM with MDA-MB-435; 0.843 µM in the assay on RPMI-8226 leukemia. Moreover, the TGI is 0.697 µM in the assay with HCT-15 colon, greater than 100 µM with DU-145 prostate, 2.05 µM with HCC-2998 colon and 1.41 µM with SF-539 CNS.
For the molecule `COc1cc(OC)c2cc(C(=O)O)c(=O)oc2c1`, the GI50 in the assay with U251 CNS was greater than 100 µM; in the assay with SF-295 CNS, 42.2 µM; in the assay with OVCAR-5 ovarian, greater than 100 µM; with SK-MEL-28 melanoma it was greater than 29.5 µM; in the assay with MDA-MB-435, greater than 100 µM; with RPMI-8226 leukemia, 6.1 µM. In addition, the GI50 with HCT-15 colon is greater than 100 µM; in the assay on DU-145 prostate, greater than 100 µM; in the assay with HCC-2998 colon, greater than 100 µM; in the assay with SF-539 CNS, greater than 96.2 µM. The TGI in the assay on U251 CNS was greater than 100 µM; with SF-295 CNS, greater than 100 µM; in the assay on OVCAR-5 ovarian it was greater than 100 µM; in the assay on SK-MEL-28 melanoma, greater than 100 µM; with MDA-MB-435, greater than 100 µM; in the assay on RPMI-8226 leukemia, greater than 36.2 µM. The TGI in the assay with HCT-15 colon, in the assay on DU-145 prostate, in the assay on HCC-2998 colon and with SF-539 CNS was greater than 100 µM in each case.
With `N#CCC12CC=CCC1=C(O)C(=O)c1ccc(O)cc12` (stereo not given), the TGI in the assay with U251 CNS, in the assay with SF-295 CNS, with OVCAR-5 ovarian, in the assay on SK-MEL-28 melanoma, in the assay on MDA-MB-435 and with RPMI-8226 leukemia was greater than 100 µM in each case. Moreover, the TGI with HCT-15 colon, with DU-145 prostate, in the assay with HCC-2998 colon and in the assay with SF-539 CNS was greater than 100 µM throughout.
Regarding `Oc1ccc2ccccc2c1C(c1ccc(Cl)cc1)c1c(O)ccc2ccccc12`, the TGI in the assay with U251 CNS came out at 12.9 µM; in the assay on SF-295 CNS it was 12.7 µM; in the assay on OVCAR-5 ovarian it was 12 µM; in the assay on SK-MEL-28 melanoma it was 15.9 µM; with MDA-MB-435 it was 9.49 µM; in the assay with RPMI-8226 leukemia it was 5.21 µM. The TGI in the assay with HCT-15 colon is greater than 30.2 µM; with DU-145 prostate, 12.4 µM; in the assay on HCC-2998 colon, 6.34 µM; in the assay on SF-539 CNS, 31.4 µM.
For the molecule `Cc1[nH]n(-c2ccc(S(=O)(=O)O)cc2)c(=O)c1N=Nc1ccccc1`, the TGI in the assay on U251 CNS, in the assay on SF-295 CNS, with OVCAR-5 ovarian, with SK-MEL-28 melanoma, in the assay with MDA-MB-435 and with RPMI-8226 leukemia was greater than 100 µM in each case. Also, the TGI in the assay with HCT-15 colon, with DU-145 prostate, with HCC-2998 colon and with SF-539 CNS was greater than 100 µM throughout.
